Test [1] deals with MCF7. The experiment in a line: Antiproliferative activity against human MCF7 cells at 30 uM after 72 hrs by MTT assay. The format is functional. The note with it: MCF7, 72 h.
Test [2] in a line: Antiproliferative activity against human PANC1 cells after 72 hrs by MTT assay. The format is functional, cell-based. The note with it: PANC-1, 72 h.
For test [3], the system named is HT-29. Nature of the test: Antiproliferative activity against human HT-29 cells after 72 hrs by MTT assay. Type of test: functional, cell-based. The following applies: HT-29, 72 h.
Test [4] deals with A549. Nature of the test: Antiproliferative activity against human A549 cells at 30 uM after 72 hrs by MTT assay. The format is functional. The following applies: A549, 72 h.
Test [5] is described as follows: Antiproliferative activity against human DU145 cells at 30 uM after 72 hrs by MTT assay. The following applies: DU-145, 72 h. Type of test: functional.
Test [6] can be described thus: Antiproliferative activity against human HL60 cells at 30 uM after 72 hrs by MTT assay. The format is functional. The following applies: HL-60, 72 h.
The nature of test [7]: Antiproliferative activity against human PANC1 cells at 30 uM after 72 hrs by MTT assay. Type of test: functional. The note with it: PANC-1, 72 h.
Test [8] deals with HT-29. Nature of the test: Antiproliferative activity against human HT-29 cells at 30 uM after 72 hrs by MTT assay. The following applies: HT-29, 72 h. Type of test: functional.
Test [9] can be described thus: Antiproliferative activity against human DU145 cells after 72 hrs by MTT assay. The format is functional, cell-based. The following applies: DU-145, 72 h.
Test [10] concerns MCF7. Nature of the test: Antiproliferative activity against human MCF7 cells after 72 hrs by MTT assay. The format is functional, cell-based. The following applies: MCF7, 72 h.
Test [11] in a line: Antiproliferative activity against human HL60 cells after 72 hrs by MTT assay. The format is functional, cell-based. The note with it: HL-60, 72 h.
The test system of test [12] is A549. The experiment in a line: Antiproliferative activity against human A549 cells after 72 hrs by MTT assay. The format is functional, cell-based. The following applies: A549, 72 h.

pIC50: −log10 of the molar value.

Take `CC(C)(C)OC(=O)Nc1ccc(OCCOc2no[n+]([O-])c2S(=O)(=O)c2ccccc2)c(C(=O)Oc2ccc(-c3cc(=S)ss3)cc2)c1`: the inhibition at 30 µM was 83.1% with MCF7 [1]; 88.5% in the test with A549 [4]; 61.6% in [5]; 84.6% in [6]; 97.1% in test [7]; 103% with HT-29 [8]. Moreover, the pIC50 was 5.84 in test [2] and 6.59 in the test with HT-29 [3].
With `O=C(Nc1ccc(OC(=O)CCCO[N+](=O)[O-])c(C(=O)Oc2ccc(-c3cc(=S)ss3)cc2)c1)Nc1ccc(F)cc1F`, the inhibition at 30 µM with MCF7 [1] is -6.87%; in the test with A549 [4], -28%; in test [5] it was -7.47%; in test [6], 0.43%; in test [7], -14.8%; with HT-29 [8], -6.41%.
As for `Nc1ccc(OCCOc2no[n+]([O-])c2S(=O)(=O)c2ccccc2)c(C(=O)Oc2ccc(-c3cc(=S)ss3)cc2)c1`, the inhibition at 30 µM in the test with MCF7 [1] stood at 90.1%; with A549 [4], 100%; in test [5], 93.8%; in test [6] it was 92.3%; in test [7] it was 96.6%; with HT-29 [8], 102%. For the same compound, the pIC50 was 5.73 in [2]; 6.11 with HT-29 [3]; 5.90 in [9]; 5.57 with MCF7 [10]; 5.73 in [11]; 5.38 in the test with A549 [12].
For the compound `CC(C)(C)OC(=O)Nc1ccc(OCCCOc2no[n+]([O-])c2S(=O)(=O)c2ccccc2)c(C(=O)Oc2ccc(-c3cc(=S)ss3)cc2)c1`, the inhibition at 30 µM in the test with MCF7 [1] was 25.2%; with A549 [4], -23.8%; in test [5], 67.9%; in test [6], 84%; in test [7] it was 97.4%; with HT-29 [8], 103%. For the same compound, the pIC50 in test [2] is 5.52; in the test with HT-29 [3], 6.03.
For `O=C(Nc1cccc(C(F)(F)F)c1)Nc1ccc(OC(=O)CCCO[N+](=O)[O-])c(C(=O)Oc2ccc(-c3cc(=S)ss3)cc2)c1`, the inhibition at 30 µM is -6.78% in the test on MCF7 [1]; -22.1% with A549 [4]; -14.2% in [5]; 14.1% in test [6]; -5.71% in test [7]; 13.2% with HT-29 [8].
Consider `COc1ccc(NC(=O)Nc2ccc(OC(=O)CCCO[N+](=O)[O-])c(C(=O)Oc3ccc(-c4cc(=S)ss4)cc3)c2)cc1`, for which the inhibition at 30 µM with MCF7 [1] was 16%; in the test on A549 [4], 3.19%; in test [5] it was -6.39%; in test [6] it was 8.3%; in test [7], 2.19%; in the test on HT-29 [8], 12.1%.
Turning to `Nc1ccc(OCCOCCOc2no[n+]([O-])c2S(=O)(=O)c2ccccc2)c(C(=O)Oc2ccc(-c3cc(=S)ss3)cc2)c1`, the inhibition at 30 µM with MCF7 [1] came to 90%; in the test on A549 [4], 62.8%; in test [5], 63.2%; in test [6], 84.4%; in test [7], 97.1%; in the test on HT-29 [8], 101%. The pIC50 is 5.10 in [2], 5.26 in the test on HT-29 [3] and 4.92 in the test with MCF7 [10].
On to `O=C(Nc1ccc(F)cc1)Nc1ccc(OC(=O)CCCO[N+](=O)[O-])c(C(=O)Oc2ccc(-c3cc(=S)ss3)cc2)c1`, for which the inhibition at 30 µM in the test on MCF7 [1] is 19.1%; in the test on A549 [4] it was -27.2%; in test [5] it was 15.3%; in test [6] it was 8.68%; in test [7] it was -12.9%; in the test with HT-29 [8], 6.92%.
On to `Nc1ccc(OCCCOc2no[n+]([O-])c2S(=O)(=O)c2ccccc2)c(C(=O)Oc2ccc(-c3cc(=S)ss3)cc2)c1`, for which the inhibition at 30 µM in the test on MCF7 [1] was found to be 92.1%; in the test on A549 [4], 100%; in test [5], 94.8%; in test [6], 87.3%; in test [7], 97.5%; in the test with HT-29 [8] it was 103%. Further, the pIC50 is 6.01 in test [2]; 6.25 in the test with HT-29 [3]; 5.65 in test [9]; 5.52 in the test with MCF7 [10]; 5.48 in the test with A549 [12].
Take `Nc1ccc(OC(=O)CCCO[N+](=O)[O-])c(C(=O)Oc2ccc(-c3cc(=S)ss3)cc2)c1`: the inhibition at 30 µM was -5.55% with MCF7 [1]; -18.4% in the test on A549 [4]; -7.67% in test [5]; 8.73% in [6]; -10.5% in test [7]; -13.3% with HT-29 [8].
Consider `O=C(Nc1cccc(Cl)c1)Nc1ccc(OC(=O)CCCO[N+](=O)[O-])c(C(=O)Oc2ccc(-c3cc(=S)ss3)cc2)c1`, for which the inhibition at 30 µM in the test with MCF7 [1] was 6.1%; in the test with A549 [4], -23.3%; in test [5], 5.49%; in test [6], 10.9%; in test [7] it was -17.3%; in the test on HT-29 [8], 21.5%.
In the case of `Cc1cccc(NC(=O)Nc2ccc(OC(=O)CCCO[N+](=O)[O-])c(C(=O)Oc3ccc(-c4cc(=S)ss4)cc3)c2)c1`, the inhibition at 30 µM with MCF7 [1] was 13.9%; in the test with A549 [4], -19.8%; in [5], -19.3%; in test [6], 7.34%; in [7] it was -14.2%; in the test on HT-29 [8], 9.56%.
Regarding `CC(C)(C)OC(=O)Nc1ccc(OCCOCCOc2no[n+]([O-])c2S(=O)(=O)c2ccccc2)c(C(=O)Oc2ccc(-c3cc(=S)ss3)cc2)c1`, the inhibition at 30 µM in the test on MCF7 [1] amounted to 63.1%; with A549 [4] it was 18.7%; in test [5], 54.7%; in test [6], 84.5%; in test [7], 97.9%; in the test on HT-29 [8] it was 103%. For the same compound, the results for the pIC50 (in test [2]; in the test on HT-29 [3]) were 5.55 and 6.27, respectively.
For `COc1cc2/c(=N/c3ccc(Br)cc3F)nc[nH]c2cc1OCC1CCN(C)CC1` [VANDETANIB], the pIC50 in [2] was 5.39; in the test on HT-29 [3], 5.72; in test [9], 5.70; with MCF7 [10] it was 5.45; in test [11] it was 5.83; in the test on A549 [12] it was 5.58.
